Results taken from PubChem BioAssay (NCI).
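Cultured in 96-well plates, cells were exposed to test compound for 48 hours across five concentrations. Abbreviation: GI50, concentration required for 50% inhibition of growth. TGI: concentration producing complete growth inhibition.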

How the values were obtained:
Assay in all cases: growth of human tumour cells (NCI), 48 h
[1] = system: NCI-H522 lung
[2] = system: BT-549 breast
[3] = system: MDA-MB-435
[4] = system: MCF7 breast
[5] = system: TK-10 renal
[6] = system: UACC-257 melanoma
[7] = system: NCI-H226 lung
[8] = system: SF-268 CNS
[9] = system: OVCAR-3 ovarian
[10] = system: EKVX NSCLC
[11] = system: NCI/ADR-RES ovarian
[12] = system: A549 NSCLC
[13] = system: MDA-MB-231 breast
[14] = system: T-47D breast
[15] = system: NCI-H23 lung
[16] = system: HCT-116 colon
[17] = system: SK-OV-3 ovarian
[18] = system: HOP-92 NSCLC
[19] = system: SK-MEL-2 melanoma
[20] = system: HS 578T breast
[21] = system: CAKI-1 renal
[22] = system: SN12C renal
[23] = system: SK-MEL-28 melanoma
[24] = system: RPMI-8226 leukemia
[25] = system: OVCAR-5 ovarian
[26] = system: ACHN renal
[27] = system: PC-3 prostate
[28] = system: UACC-62 melanoma
[29] = system: A498 renal
[30] = system: HCT-15 colon
[31] = system: 786-0 renal
[32] = system: SW-620 colon
[33] = system: SNB-75 CNS
[34] = system: M14 melanoma
[35] = system: SF-295 CNS
[36] = system: RXF 393 renal
[37] = system: DU-145 prostate
[38] = system: UO-31 renal
[39] = system: NCI-H460 lung
[40] = system: KM12 colon
[41] = system: HT29 colon
[42] = system: OVCAR-4 ovarian
[43] = system: HCC-2998 colon
[44] = system: SK-MEL-5 melanoma
[45] = system: U251 CNS

`CN1CCN(CCCOc2ccc3nc(Nc4cc(Cl)cc(Cl)c4)ccc3c2)CC1` showed a GI50 [1] of 2.06 µM, a TGI [1] of 3.74 µM and a GI50 [2] of 1.9 µM. It also gave a TGI [2] of 3.58 µM, a GI50 [3] of 1.5 µM and a TGI [3] of 2.94 µM. For the same molecule, the GI50 [4] was 1.48 µM, the TGI [4] was 3.05 µM and the GI50 [5] was 2.33 µM. It also gave a TGI [5] of 3.92 µM, a GI50 [6] of 2.13 µM and a TGI [6] of 3.85 µM. The GI50 [7] was 2.14 µM, the TGI [7] was 5.68 µM and the GI50 [8] was 1.48 µM. It also gave a TGI [8] of 3.02 µM, a GI50 [9] of 1.56 µM and a TGI [9] of 3.22 µM. It also gave a GI50 [10] of 1.63 µM, a TGI [10] of 3.38 µM and a GI50 [11] of 1.99 µM. The TGI [11] was 5.78 µM, the GI50 [12] was 2.11 µM and the TGI [12] was 3.8 µM. It also gave a GI50 [13] of 1.56 µM, a TGI [13] of 3.31 µM and a GI50 [14] of 1.99 µM. The TGI [14] was 4.39 µM, the GI50 [15] was 1.63 µM and the TGI [15] was 3.54 µM. It also gave a GI50 [16] of 1.58 µM, a TGI [16] of 2.98 µM and a GI50 [17] of 2 µM. For the same molecule, the TGI [17] was 3.69 µM, the GI50 [18] was 1.46 µM and the TGI [18] was 3.2 µM. It also gave a GI50 [19] of 2.03 µM, a TGI [19] of 4.04 µM and a GI50 [20] of 1.87 µM. The TGI [20] was 5.24 µM, the GI50 [21] was 1.82 µM and the TGI [21] was 3.72 µM. It also gave a GI50 [22] of 1.81 µM, a TGI [22] of 3.77 µM and a GI50 [23] of 1.63 µM. It also gave a TGI [23] of 3.21 µM, a GI50 [24] of 2.16 µM and a TGI [24] of 4.78 µM. It also gave a GI50 [25] of 1.71 µM, a TGI [25] of 3.35 µM and a GI50 [26] of 1.51 µM. The TGI [26] was 2.9 µM, the GI50 [27] was 1.93 µM and the TGI [27] was 3.71 µM. For the same molecule, the GI50 [28] was 1.81 µM, the TGI [28] was 3.76 µM and the GI50 [29] was 1.8 µM. It also gave a TGI [29] of 3.22 µM, a GI50 [30] of 0.677 µM and a TGI [30] of 2.11 µM. It also gave a GI50 [31] of 1.58 µM, a TGI [31] of 3.08 µM and a GI50 [32] of 1.68 µM. The TGI [32] was 3.46 µM, the GI50 [33] was 1.11 µM and the TGI [33] was 2.56 µM. The GI50 [34] was 1.5 µM, the TGI [34] was 3.08 µM and the GI50 [35] was 1.41 µM. It also gave a TGI [35] of 2.89 µM, a GI50 [36] of 1.33 µM and a TGI [36] of 2.93 µM. It also gave a GI50 [37] of 1.57 µM, a TGI [37] of 3.07 µM and a GI50 [38] of 1.58 µM. For the same molecule, the TGI [38] was 3.24 µM, the GI50 [39] was 1.54 µM and the TGI [39] was 3.18 µM. It also gave a GI50 [40] of 1.53 µM, a TGI [40] of 2.99 µM and a GI50 [41] of 0.548 µM. For the same molecule, the TGI [41] was 1.84 µM, the GI50 [42] was 1.79 µM and the TGI [42] was 5.65 µM. The GI50 [43] was 1.54 µM, the TGI [43] was 3.06 µM and the GI50 [44] was 1.76 µM. It also gave a TGI [44] of 3.31 µM, a GI50 [45] of 1.61 µM and a TGI [45] of 3.13 µM.
